Experimental data published in article PMC3164320 (Journal of medicinal chemistry, 2011).

Test system: HIV-1LAI
Test: Antiviral MTT assay in MT-2 cells exposed to HIV-1LAI
Type: cell-based

SMILES	fold loss of antiviral activity compared to 22 [fold]
COc1ccc(S(=O)(=O)N(CC(C)C)C[C@@H](O)[C@H](Cc2ccccc2)NC(=O)O[C@@H]2C[C@@H]3[C@H](OC)CO[C@@H]3C2)cc1 [Inhibitor 25, (3S,3aS,5R,6aR)-3-Methoxyhexahydro-2H-cyclopenta[b]furan-5-yl [(2S,3R)-3-Hydroxy-4-(N-iso-butyl-4-methoxyphenylsulfonamido)-1-phenylbutan-2-yl]carbamate]	~5
CC(C)CN(C[C@@H](O)[C@H](Cc1ccccc1)NC(=O)O[C@@H]1C[C@@H]2[C@H](O)CO[C@@H]2C1)S(=O)(=O)c1ccc(N)cc1 [Inhibitor 23, (3S,3aR,5R,6aR)-3-Hydroxyhexahydro-2H-cyclopenta[b]furan-5-yl [(2S,3R)-4-(4-Amino-N-isobutylphenylsulfonamido)-3-hydroxy-1-phenylbutan-2-yl]carbamate]	3
